Assay [1] addresses T1, ABCR K939M, K1978M and K939M/K1978M mutants (Homo sapiens, UniProt P78363, K1978M/K969M).
T1 construct: made in house
Description: ATPase activity of Walker A lysine-to-methionine mutants. It counts as biochemical. Conditions: 50 μM all-trans retinal. Here is the method:
FIG. 4. Lysine to methionine Walker A mutations in ABCR abolish ATP hydrolysis but not ATP binding. A. ATPase activity was measured in the absence (white bars) or presence of 50 μM all-trans retinal (grey bars). WT, wild-type; K969M in NBD1; K1978M in NBD2; MM, K969M/K1978M double mutant; NCM, N-half co-expressed with C-half containing a K1978M mutation. B. ATP photoaffinity labeling was carried out by irradiating membranes from COS-1 cells expressing wild-type (WT), K969M, K1978M, or K969M/K1978M double mutant (MM) with 3 μM 8-azido-[α-^32P]ATp. The labeled protein was isolated with Rim3F4-Sepharose and separated on SDS gels. Left panel: gel stained with Coomassie blue. Right panel: corresponding ^32P labeling obtained with a phosphorimager. All mutant proteins were labeled with 8-azido-[α-^32P]ATP, but the double mutant bound less nucleotide.
ATPase activity was measured as described previously (Ahn, J., Wong, J. T., and Molday, R. S. (2000) J Biol Chem 275(27), 20399-405) using 50 μM [α^32P]ATP and thin layer chromatography. The all-trans retinal concentration was determined spectrophotometrically (λ383 nm=42.88 mM^−1 cm^−1). Protein concentration was estimated from the eluate before reconstitution by laser densitometry of Coomassie blue stained gels using bovine serum albumin as a standard. […]

The target in another assay is T2, ABCR (Homo sapiens, UniProt P78363).
T2 construct: Membranes from transfected cells expressing either full-length ABCR (lanes 1 & 2) or co-expressing the N and C halves; expressed in transfected cells; host or cells: transfected cells (COS-1 or EBNA293)
Description: 8-azido-ATP/ADP nucleotide trapping in membranes from transfected cells. Format: binding. Conditions: 50 μM all-trans retinal, 5 μM 8-azido-[α-32P]ATP, 37° C. Here is the method:
FIG. 7. Nucleotide trapping by ABCR and co-expressed N and C halves. A. Effect of orthovanadate on nucleotide trapping. Membranes from transfected cells were incubated with 5 μM 8-azido-[α-^32P]ATP at 37° C., washed, and tightly bound nucleotides were UV crosslinked. Lane 1, full-length ABCR; lane 2, full-length ABCR incubated with 800 μM orthovanadate; lane 3, co-expressed N and C halves; lane 4, co-expressed N- and C-halves incubated with 800 μM orthovanadate. B. Effect of temperature and retinal on nucleotide trapping. Lane 1, full-length ABCR labeled at 0° C.; lane 2, full-length ABCR labeled at 37° C.; lane 3, full-length ABCR labeled at 37° C. in the presence of 50 μM all-trans retinal; lane 4, co-expressed N and C halves labeled at 0° C.; lane 5, co-expressed N and C halves labeled at 37° C.; lane 6, co-expressed N and C halves labeled at 37° C. in the presence of 50 μM all-trans retinal.
8-Azido-ATP Trapping—Membranes were incubated with 5 μM 8-azido-[α-^32P]ATP in 50 μl of labeling buffer with or without 800 μM sodium orthovanadate for 10 min at 37° C. All-trans retinal and 50 μM DTT were added where indicated. Binding was stopped by the addition of ice-cold 20 mM Tris-HCl, pH 7.4, the membranes were collected by centrifugation and washed one more time. Samples exposed to orthovanadate were washed in the presence of 800 μM orthovanadate. […]

T2 sequence (P78363 whole entry): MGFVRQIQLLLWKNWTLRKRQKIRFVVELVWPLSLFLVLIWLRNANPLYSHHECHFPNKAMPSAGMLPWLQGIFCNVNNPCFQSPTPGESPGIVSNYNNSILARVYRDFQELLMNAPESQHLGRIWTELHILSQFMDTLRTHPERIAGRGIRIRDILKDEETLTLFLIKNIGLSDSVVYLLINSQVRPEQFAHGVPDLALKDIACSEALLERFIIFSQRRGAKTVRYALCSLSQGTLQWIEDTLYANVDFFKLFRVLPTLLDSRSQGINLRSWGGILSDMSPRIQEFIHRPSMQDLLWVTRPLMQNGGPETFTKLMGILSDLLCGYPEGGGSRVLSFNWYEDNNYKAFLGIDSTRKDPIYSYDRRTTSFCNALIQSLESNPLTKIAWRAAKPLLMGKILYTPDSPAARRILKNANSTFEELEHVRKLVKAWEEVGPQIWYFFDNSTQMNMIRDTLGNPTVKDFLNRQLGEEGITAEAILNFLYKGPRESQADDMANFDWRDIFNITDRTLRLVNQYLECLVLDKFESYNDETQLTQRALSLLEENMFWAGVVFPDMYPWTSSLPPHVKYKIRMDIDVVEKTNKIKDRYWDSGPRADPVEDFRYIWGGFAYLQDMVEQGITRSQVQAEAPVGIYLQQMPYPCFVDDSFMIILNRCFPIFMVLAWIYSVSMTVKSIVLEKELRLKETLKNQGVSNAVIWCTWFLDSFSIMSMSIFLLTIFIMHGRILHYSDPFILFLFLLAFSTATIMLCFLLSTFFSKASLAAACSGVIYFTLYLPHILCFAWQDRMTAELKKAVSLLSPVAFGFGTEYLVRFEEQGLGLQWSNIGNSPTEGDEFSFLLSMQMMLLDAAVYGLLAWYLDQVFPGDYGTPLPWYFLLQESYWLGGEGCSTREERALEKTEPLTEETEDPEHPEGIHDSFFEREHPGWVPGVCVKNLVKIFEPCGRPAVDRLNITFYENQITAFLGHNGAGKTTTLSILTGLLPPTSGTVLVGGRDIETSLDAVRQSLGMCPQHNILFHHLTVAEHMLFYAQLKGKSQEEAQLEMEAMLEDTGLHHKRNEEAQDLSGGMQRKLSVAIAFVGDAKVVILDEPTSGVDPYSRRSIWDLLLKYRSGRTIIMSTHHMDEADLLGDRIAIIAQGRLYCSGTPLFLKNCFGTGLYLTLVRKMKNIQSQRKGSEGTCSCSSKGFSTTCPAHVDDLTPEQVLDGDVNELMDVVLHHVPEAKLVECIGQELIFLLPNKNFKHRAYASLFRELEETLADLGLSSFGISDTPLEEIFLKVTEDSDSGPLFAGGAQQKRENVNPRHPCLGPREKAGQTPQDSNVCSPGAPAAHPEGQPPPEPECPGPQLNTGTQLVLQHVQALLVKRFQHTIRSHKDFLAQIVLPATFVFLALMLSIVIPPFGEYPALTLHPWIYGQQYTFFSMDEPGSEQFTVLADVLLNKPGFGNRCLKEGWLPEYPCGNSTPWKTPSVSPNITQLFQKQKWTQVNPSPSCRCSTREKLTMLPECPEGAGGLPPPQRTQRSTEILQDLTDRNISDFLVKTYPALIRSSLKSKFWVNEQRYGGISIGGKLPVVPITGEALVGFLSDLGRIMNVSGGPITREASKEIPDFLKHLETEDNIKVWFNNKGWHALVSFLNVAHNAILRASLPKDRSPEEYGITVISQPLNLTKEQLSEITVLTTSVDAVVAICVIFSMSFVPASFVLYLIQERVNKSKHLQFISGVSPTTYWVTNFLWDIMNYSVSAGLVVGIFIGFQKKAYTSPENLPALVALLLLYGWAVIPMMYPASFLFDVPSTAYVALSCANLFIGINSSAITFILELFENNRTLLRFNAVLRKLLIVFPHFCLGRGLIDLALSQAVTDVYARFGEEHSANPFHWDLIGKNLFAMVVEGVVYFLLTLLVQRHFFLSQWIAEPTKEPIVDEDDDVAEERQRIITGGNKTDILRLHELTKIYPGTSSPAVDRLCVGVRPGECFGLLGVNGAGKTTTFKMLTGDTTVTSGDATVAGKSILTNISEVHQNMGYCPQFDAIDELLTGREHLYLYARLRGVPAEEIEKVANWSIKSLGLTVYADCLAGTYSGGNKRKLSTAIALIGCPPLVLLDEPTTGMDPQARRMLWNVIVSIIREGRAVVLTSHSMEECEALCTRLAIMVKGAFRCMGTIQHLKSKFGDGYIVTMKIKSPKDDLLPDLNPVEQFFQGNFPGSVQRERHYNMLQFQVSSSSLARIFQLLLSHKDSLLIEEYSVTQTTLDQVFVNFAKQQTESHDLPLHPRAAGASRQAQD
T1 sequence (P78363 whole entry K969M/K1978M): as the sequence (P78363 whole entry) above, with K969M, K1978M counted along it

As to `CC1=C(/C=C/C(C)=C/C=C/C(C)=C/C=O)C(C)(C)CCC1` [all-trans retinal], the “retinal activation of ATPase activity” value in assay [1] is “abolished retinal activation”. The “effect on 8-azido ATP/ADP trapping” value at ABCR was “not dependent on sodium orthovanadate or influenced”.
